These are literature values, as cited in patent US20230363334A1, “METHOD FOR INCREASING CONTENT AND GENE EXPRESSION OF AROMATIC SUBSTANCE IN FRUITS AND VEGETABLES BY USING HYDROGEN-RICH WATER” (NANJING AGRICULTURAL UNIVERSITY, priority 2020, published 2023).

The conditions of the data set: one atmosphere and 20° C.

Turning to `[HH]` [hydrogen], the “Maximum concentration of hydrogen dissolved in water (saturation concentration)” value was 1.6 ppm and the “Solubility of hydrogen (volumes of hydrogen per volume of water)” value was 1.83%.
